Laboratory results taken from PubChem BioAssay (NCI).
“And” between values parts separate entries of the source, which are not always exact repeats. Equal values may be shown once.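 48-hour exposure; five concentrations; linearly interpolated endpoints. Here, GI50 denotes the concentration required for 50% inhibition of growth. The concentration for full growth arrest is given as TGI.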

How the values were obtained:
Assay in all cases: inhibition of tumour cell growth, NCI panel, 48 h
A498 renal = tested on: A498 renal
HCT-15 colon = tested on: HCT-15 colon
MALME-3M melanoma = tested on: MALME-3M melanoma
NCI-H522 lung = tested on: NCI-H522 lung
RXF 393 renal = tested on: RXF 393 renal
TK-10 renal = tested on: TK-10 renal
UACC-257 melanoma = tested on: UACC-257 melanoma
UACC-62 melanoma = tested on: UACC-62 melanoma
DU-145 prostate = tested on: DU-145 prostate

Structure (SMILES)	TGI (A498 renal) [µM]	TGI (HCT-15 colon) [µM]	TGI (MALME-3M melanoma) [µM]	TGI (NCI-H522 lung)	TGI (RXF 393 renal) [µM]	TGI (TK-10 renal) [µM]	TGI (UACC-257 melanoma) [µM]	TGI (UACC-62 melanoma)	GI50 (A498 renal) [µM]	GI50 (DU-145 prostate) [µM]	TGI (DU-145 prostate) [µM]	GI50 (HCT-15 colon) [µM]	GI50 (MALME-3M melanoma) [µM]	GI50 (NCI-H522 lung) [µM]	GI50 (RXF 393 renal) [µM]	GI50 (TK-10 renal) [µM]	GI50 (UACC-257 melanoma) [µM]	GI50 (UACC-62 melanoma) [µM]
COC(=O)C(=O)C(C(=O)C(=O)Nc1ccc(C)cc1C)c1nc2ccccc2[nH]c1=O (stereo not given)	58.8	> 100	> 100	93 µM	60	> 100	> 100	> 100 µM										
CCc1cccc(C)c1NC(C)=O	> 100	> 100	> 100		> 100	> 100	> 100	> 100 µM										
COC(=O)C(=O)C(C(=O)C=C(C)C)C(=O)C(=O)Nc1ccc(Cl)cc1C (stereo not given)	> 100	> 100	> 100	> 100 µM	> 100	> 100	> 100	> 100 µM										
Cc1cc(NS(=O)(=O)c2ccc(NC(=O)c3cccc4c(=O)c5ccccc5[nH]c34)cc2)no1	79	> 100	> 100	56.6 µM		> 100	> 100	66.8 µM										
Cc1ccc(N=NC(C(=O)c2ccccc2)C(=O)c2ccccc2)cc1	> 100	43.6	> 100	44.3 µM		> 100	> 100	60.8 µM										
CC(=O)SCCC1c2[nH]c3ccccc3c2CCN1O (stereo not given)		> 100	> 100	> 100 µM	> 100	> 100	> 100	> 100 µM										
N#C/C(C(=S)Nc1ccccc1)=C1/NN=C2c3ccccc3C(=O)NN21	53.1	> 100	> 100	63.3 µM	22.9	50.4	> 100	> 100 µM	21.3	28.8	> 100	27.6	13.9	11.8	0.512	21.2	39	31.5
Cc1cccc(N2C(=O)C(Cl)=C(Cl)C2=O)c1	> 100	> 58.4	> 59.4	22.7 µM	30.7	> 100	> 100	> 100 µM										
CCCCn1c(-c2ccc(C(=O)O/N=C(\N)c3ccc(OC)cc3)cc2)nc(-c2ccccc2)c1-c1ccccc1					3.24	3.38	> 100	4.58 µM		1.27	2.59				1.64	1.76	3.61	1.88
Cc1ccc(NC(=O)C2C(=O)N(c3ccc(C)c(C)c3)C(=O)/C2=N/O)cc1C (stereo not given)	> 100	> 100	> 100	> 100 µM	> 100	> 100	> 100	> 100 µM										
O=C(CC(=O)N1N=C(c2ccccc2)C(N=Nc2ccc(Cl)cc2)C1=O)Nc1ccccc1Cl (stereo not given)		> 100		> 100 µM		38.1		53.3 µM										
COC(=O)c1cc2c(c(C(=O)OC)c1O)C(=O)C=CC2=O	> 55.8	> 49.4	> 58.4	9.1 µM and > 26.9 µM	> 48.9	> 54.6	> 48.7	> 9.1 µM and 33.7 µM	> 9.1			> 9.1	> 9.1	3.01	> 9.1	> 9.1	> 9.1	18
Nc1c(-c2ccc(Br)cc2)[n+]([O-])c2ccccc2[n+]1[O-]	> 100	> 100	> 100	> 100 µM			> 100											
O=C(/C=C/c1ccccc1Cl)c1ccccc1Cl	> 100	28	69.4	38.1 µM		> 100	60.4	36.7 µM										
CN(C)C(=S)/N=c1\ss/c(=N\C(=S)N(C)C)n1-c1ccc2c(c1)OCO2	> 100	> 100	> 100	> 100 µM	> 100	> 100	> 100	> 100 µM										
Cc1ccc(C(=O)/C=C/c2ccccc2O)c(C)c1	> 100	> 100	> 100	> 100 µM	> 100	> 100	> 100	> 100 µM										
N#CCCN(CCC#N)c1ccc(/C=C2\N=C(CN3C(=O)c4ccccc4C3=O)OC2=O)cc1	> 100	> 100	> 100	> 100 µM			> 100	> 100 µM										
CC(=O)c1ccc(NC(=O)/C(Cc2ccccn2)=N/NC(=O)C[N+](C)(C)C)cc1	> 100	> 100	> 100	> 100 µM	> 100	> 100	> 100	> 100 µM										
